# Key:
# Format in all cases: functional
# P388 [1] = assay: In vivo antitumor activity against mouse P388 cells at 1 mg/kg relative to control
# P388 [2] = assay: In vivo antitumor activity against mouse P388 cells at 0.75 mg/kg relative to control
# KB = assay: Cytotoxicity against human KB cells; conditions: read-out: ED50 (the source's name)
smiles,measurement,setting,value
C=C1CC[C@]2(C)CC[C@]3(C)C4=CC=C5C(=CC(=O)C(O)=C5C)[C@]4(C)CC[C@@]3(C)[C@@H]2C1 [ISOIGUESTERIN],T/C,P388 [1],147%
same,T/C,P388 [2],125%
same,EC50,KB,0.24 µg/mL
